Experimental data published in patent US6011047A, “Substituted 3-amino-2-hydroxyphenylacetamide derivatives as enzyme inhibitors” (priority 1997, dated 2000).

Assays:
thrombin = conditions: in words; cited from earlier work
[1] = in words; cited from earlier work
[2] = in words; cited from earlier work; remark: listed apart in the source
[3] = system: thrombotic occlusion in rat carotid artery; conditions: dose that prevents complete thrombotic occlusion in 50% of animals, FeCl3 model; cited from earlier work
human alpha-thrombin [4] = molecular target: T1, human alpha-thrombin (Homo sapiens, UniProt P00734); test: in vitro thrombin inhibition assay (Ki, chromogenic substrate Pefachrome t-PA); assay type: biochemical; conditions: human alpha-thrombin 0.2 nM; steady state velocities over 60 minutes; pH 7.5
Protocol: The ability of the compounds of Example 11 and 14 to act as an inhibitor of thrombin catalytic activity was assessed by determining the compounds, inhibition constant, Ki.
Enzyme activity was determined using the chromogenic substrate Pefachrome t-PA (CH3 SO2 -D-hexahydrotyrosine-glycyl-L-arginine-p-Nitroanilide), obtained from Pentapharm Ltd. The substrate was reconstituted in deionized water prior to use. Purified human alpha-thrombin (3000U/mg specific activity) was obtained from Enzyme Research Laboratories, Inc. The buffer used for all assays was HBSA (10 mM HEPES, pH 7.5, 150 mM sodium chloride, 0.1% bovine serum albumin).
At time zero, 50 microliters of alpha-thrombin diluted in HBSA were added to the wells, yielding a final concentration of 0.2 nM in a total volume of 250 microliters. Velocities of chromogenic substrate hydrolysis which occurred over 60 minutes were measured by the change in absorbance at 405 nm using a Thermo Max® Kinetic Microplate Reader. […] The extent of substrate hydrolysis was less than 5% over the course of this assay.

human alpha-thrombin [5] = molecular target: T1, human alpha-thrombin; test: Thrombin (fIIa) IC50 assay for specificity determination; assay type: biochemical; conditions: 30-minute incubation
Protocol: (§1) The ability of compounds of this invention to act as a selective inhibitor of thrombin catalytic activity was assessed by determining the concentration of test compound which inhibited the activity of this enzyme by 50%, (IC50), and comparing this value to that determined for some or all of the following related serine proteases: recombinant tissue plasminogen activator (rt-PA), plasmin, activated protein C (aPC), chymotrypsin and trypsin.
(§2) The buffer used for all assays was HBSA (10 mM HEPES, pH 7.5, 150 mM sodium chloride, 0.1% bovine serum albumin). The assay for IC50 determinations was conducted by combining in appropriate wells of a Corning microtiter plate, 50 microliters of HBSA, 50 microliters of the test compound at a specified concentration (covering a broad concentration range) diluted in HBSA (or HBSA alone for Vo (uninhibited velocity) measurement), and 50 microliters of the enzyme diluted in HBSA. […] The initial velocity of chromogenic substrate hydrolysis was measured by the change in absorbance at 405 nm using a Thermo Max® Kinetic Microplate Reader over a 5 minute period in which less than 5% of the added substrate was utilized. […]
Enzyme activity was determined using the chromogenic substrate, Pefachrome t-PA (CH3 SO2 -D-hexahydrotyrosine-glycyl-L-Arginine-p-nitroaniline, obtained from Pentapharm Ltd.). […]

rt-PA = molecular target: T2, rt-PA (Homo sapiens, UniProt P00750); test: Recombinant tissue plasminogen activator (rt-PA) IC50 assay; assay type: biochemical; conditions: maximal concentration 2500 nM
T2 construct: purchased Genentech Inc. Activase
Protocol: as §1, §2
rt-PA catalytic activity was determined using the substrate, Pefachrome t-PA (CH3 SO2 -D-hexahydrotyrosine-glycyl-L-arginine-p-nitroanilide, obtained from Pentapharm Ltd.). […]

Plasmin = Plasmin (Homo sapiens, UniProt P00747); test: Plasmin IC50 assay; assay type: biochemical; conditions: maximal concentration 2500 nM
Protocol: as §1, §2
Plasmin catalytic activity was determined using the chromogenic substrate, S-2366 (L-pyro-Glu-Pro-Arg-pNa.HCl), which was obtained from DiaPharma Group. […]

aPC = molecular target: T3, aPC (Homo sapiens, UniProt P04070); test: Activated protein C (aPC) IC50 assay; assay type: biochemical; conditions: maximal concentration 2500 nM
T3 construct: purchased Hematologic Technologies, Inc
Protocol: as §1, §2
aPC catalytic activity was determined using the chromogenic substrate, Pefachrome PC (delta-carbobenzloxy-D-lysine-L-prolyl-L-arginine-p-nitroanilide), obtained from Pentapharm Ltd.). […]

Chymotrypsin = molecular target: T4, Chymotrypsin (Bos taurus, UniProt P00766); test: Chymotrypsin IC50 assay; assay type: biochemical, bovine; conditions: maximal concentration 2500 nM
T4 construct: bovine pancreatic a-chymotrypsin; purchased Worthington Biochemical Corp. CDI; host or cells: bovine pancreas
Protocol: as §1, §2
Chymotrypsin catalytic activity was determined using the chromogenic substrate, S-2586 (methoxy-succinyl-L-arginine-L-prolyl-L-tyrosyl-p-nitroanilide), which was obtained from DiaPharma Group. […]

Trypsin = molecular target: T5, Trypsin (Bos taurus, UniProt P00760); test: Trypsin IC50 assay; assay type: biochemical, bovine; conditions: 30-minute incubation
T5 construct: bovine pancreatic trypsin; purchased Worthington Biochemical Corp. TRL3; host or cells: bovine pancreas
T5 sequence (P00760 24-246): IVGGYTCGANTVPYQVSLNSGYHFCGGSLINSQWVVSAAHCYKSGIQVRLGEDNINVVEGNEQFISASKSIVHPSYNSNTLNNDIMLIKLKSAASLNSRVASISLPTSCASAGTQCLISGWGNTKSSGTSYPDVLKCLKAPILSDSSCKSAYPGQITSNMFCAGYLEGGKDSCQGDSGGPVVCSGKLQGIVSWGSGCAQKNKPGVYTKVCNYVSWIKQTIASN
Protocol: as §1, §2
Trypsin catalytic activity was determined using the chromogenic substrate, S-2222 (benzoyl-L-isoleucine-L-glutamic acid-(gamma-methyl ester)-L-arginine-p-nitroanilide), which was obtained from DiaPharma Group. […]

[6] = in words; cited from earlier work; remark: listed apart in the source
[7] = system: atherosclerotic rabbit femoral artery; conditions: in words; cited from earlier work

T2 sequence (P00750 36-562): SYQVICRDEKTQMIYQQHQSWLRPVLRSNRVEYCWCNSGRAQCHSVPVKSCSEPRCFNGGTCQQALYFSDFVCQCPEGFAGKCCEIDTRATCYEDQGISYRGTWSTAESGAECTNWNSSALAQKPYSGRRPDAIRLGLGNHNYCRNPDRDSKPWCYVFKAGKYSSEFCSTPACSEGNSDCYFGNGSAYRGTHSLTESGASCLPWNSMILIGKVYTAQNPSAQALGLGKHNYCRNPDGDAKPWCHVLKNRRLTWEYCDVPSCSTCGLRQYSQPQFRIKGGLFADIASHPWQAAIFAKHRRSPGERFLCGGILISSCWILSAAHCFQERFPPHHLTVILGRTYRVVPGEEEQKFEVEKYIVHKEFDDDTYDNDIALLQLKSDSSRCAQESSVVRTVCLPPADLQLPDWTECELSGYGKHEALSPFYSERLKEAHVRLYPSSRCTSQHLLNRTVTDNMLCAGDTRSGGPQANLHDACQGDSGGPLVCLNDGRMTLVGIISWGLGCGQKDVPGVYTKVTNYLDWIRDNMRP
T3 sequence (P04070 212-450 limits assumed): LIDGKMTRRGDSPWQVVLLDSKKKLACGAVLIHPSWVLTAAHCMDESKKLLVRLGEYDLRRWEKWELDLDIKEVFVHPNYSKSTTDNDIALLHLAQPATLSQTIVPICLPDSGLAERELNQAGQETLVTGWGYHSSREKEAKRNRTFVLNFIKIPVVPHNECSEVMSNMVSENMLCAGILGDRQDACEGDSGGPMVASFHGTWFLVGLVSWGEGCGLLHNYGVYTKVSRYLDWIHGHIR
T3 sequence (P04070 43-197 limits assumed): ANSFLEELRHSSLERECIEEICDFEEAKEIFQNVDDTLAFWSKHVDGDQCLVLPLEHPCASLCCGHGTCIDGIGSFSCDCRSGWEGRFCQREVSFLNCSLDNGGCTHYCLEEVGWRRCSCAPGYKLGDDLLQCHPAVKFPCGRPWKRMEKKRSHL
Sequence of Plasmin (P00747 581-810 limits assumed): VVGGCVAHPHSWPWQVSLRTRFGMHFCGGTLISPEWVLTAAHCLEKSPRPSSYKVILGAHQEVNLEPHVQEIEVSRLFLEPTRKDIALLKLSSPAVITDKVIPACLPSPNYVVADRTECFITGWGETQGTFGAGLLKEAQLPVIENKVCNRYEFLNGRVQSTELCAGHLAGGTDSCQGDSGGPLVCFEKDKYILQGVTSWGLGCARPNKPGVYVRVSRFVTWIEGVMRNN
Sequence of Plasmin (P00747 97-580 limits assumed): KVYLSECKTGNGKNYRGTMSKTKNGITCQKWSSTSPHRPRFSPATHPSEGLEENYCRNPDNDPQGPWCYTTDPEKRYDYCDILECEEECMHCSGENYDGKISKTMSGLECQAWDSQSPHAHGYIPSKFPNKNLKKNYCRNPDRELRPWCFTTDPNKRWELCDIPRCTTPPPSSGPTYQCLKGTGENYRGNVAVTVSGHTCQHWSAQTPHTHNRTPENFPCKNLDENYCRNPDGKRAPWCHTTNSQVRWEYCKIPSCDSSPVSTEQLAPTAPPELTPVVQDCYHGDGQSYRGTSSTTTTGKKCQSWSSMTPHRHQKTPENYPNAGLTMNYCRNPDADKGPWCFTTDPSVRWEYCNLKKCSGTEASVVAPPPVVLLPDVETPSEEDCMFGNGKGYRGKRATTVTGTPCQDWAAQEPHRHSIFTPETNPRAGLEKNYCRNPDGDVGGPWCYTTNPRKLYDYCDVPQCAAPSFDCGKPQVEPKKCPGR

Row | Compound | selectivity of thrombin inhibition (thrombin) | Ki (human alpha-thrombin [4]) | IC50 (human alpha-thrombin [5]) | IC50 (rt-PA) | IC50 (Plasmin) | IC50 (aPC) | IC50 (Chymotrypsin) | IC50 (Trypsin) | other results
1 | N=C(N)c1ccc(CC(=O)C(=O)O)cc1 [APPA, 4-amidinophenylpyruvic acid] | non-selective, inhibiting trypsin, plasmin and kallikrein |  |  |  |  |  |  |  | toxicity [1]: low toxicity; pharmacokinetics [2]: favourable pharmacokinetics
2 | CC1CNc2c(cccc2S(=O)(=O)N[C@@H](CCCNC(=N)N)C(=O)N2CC[C@@H](C)C[C@@H]2C(=O)O)C1 (stereo partly drawn) [Argatroban, 2R,4R-4-methyl-1-[N-2-(3-methyl-1,2,3,4-tetrahydro-8-quinolinesulfonyl)-L-argininy]-2-piperdinecarboxylic acid] |  |  |  |  |  |  |  |  | ED50 [3]: 3.8 mg/kg
3 | Cc1ccc(NS(=O)(=O)Cc2ccccc2)c(O)c1CC(=O)N[C@H](C=O)CCCN=C(N)N [Example 11, N-[2-hydroxy-3-(N-benzylsulfonylamino)-6-methylphenylacetyl]-L-argininal] |  | 0.00079 µM | 0.00319 µM | > 2.5 µM | > 2.5 µM | > 2.5 µM | > 2.5 µM | 1.14 µM | 
4 | COc1c(NS(=O)(=O)Cc2ccccc2)ccc(C)c1CC(=O)N[C@H](C=O)CCCN=C(N)N [Example 14, N-[2-methoxy-3-(N-benzylsulfonylamino)-6-methylphenylacetyl]-L-argininal] |  | 0.001 µM | 0.00144 µM | > 2.5 µM | > 2.5 µM | > 2.5 µM | > 2.5 µM | 1.81 µM | 
5 | CS(=O)(=O)O.CS(=O)(=O)O.N=C(N)Nc1ccc(C(=O)Oc2ccc3cc(C(=N)N)ccc3c2)cc1 [FUT 175, 6-amidino-2-naphthyl-4-guanidinobenzoate dimethanesulfonate] | non-selective |  |  |  |  |  |  |  | 
6 | Hirudin |  |  |  |  |  |  |  |  | antithrombotic / anticoagulant effect [6]: potent antithrombotic agent in vivo; inhibition of smooth muscle proliferation and associated restenosis [7]: effectively inhibit smooth muscle proliferation and the associated restenosis
